Experiment: Pharmacokinetics (plasma and urine) of ascending multiple oral doses in healthy volunteers
Assay type: in vivo, human
Parameters: Cmax: unit: ng/mL
Conditions: for AUC(0-∞) / Cmax / Ctrough / RA (ratio of accumulation) / t1/2 / Tmax: Day 14 (N = 8); for AUC(0-∞) / Cmax / Ctrough / RA (ratio of accumulation) / t1/2 / AUC(0-τ): geometric mean; for Tmax: median; for AUC(0-τ): Day 14, τ = 24 hours (N = 8)
From the text: Subjects: Forty healthy male and female subjects between the ages of 20 and 50 were enrolled in the study. All subjects were in good health as determined by a medical history, physical examination, 12-lead ECG, serum biochemistry, hematology, urinalysis and virology. Subjects were not permitted to take any prescribed medication within 30 days or non-prescribed medication within 7 days of the first dose administration.
Study Design: This study was a randomized, double-blind, placebo-controlled, ascending-dose trial to evaluate the safety, tolerability and pharmacokinetics (PK) of multiple oral doses of Compound I. Subjects were enrolled into 1 of the 4 cohorts, 10 subjects per cohort (active:placebo=8:2). Subjects received a multiple oral dose of 25, 50, 100, or 200 mg unformulated Compound I in a capsule, or matching placebo, once daily (QD) for 14 days.
Assessments: Safety and tolerability were assessed by adverse event (AE) monitoring, clinical laboratory testing, vital sign measurement, 12-lead ECG measurement, concomitant medication assessment, and physical examination. Blood and urine samples were collected to assess the PK profile of Compound I and the S-cis isomer of Compound I. Blood samples (˜5 mL) for plasma PK analysis were collected in K2-EDTA vacutainer tubes to yield approximately 2 mL of plasma at each of the following time points: (i) Day 1: before dosing, and 0.25, 0.5, 1, 1.5, 2, 2.5, 3, 4, 6, 8, 10, 12, 16, and 24 hours after dosing; (ii) Day 3 to Day 9: before dosing; (iii) Day 10: before dosing, and 0.25, 0.5, 1, 1.5, 2, 2.5, 3, 4, 6, 8, 10, 12, and 16 hours after dosing; (iv) Day 11 to Day 13: before dosing; (v) Day 14: before dosing, and 0.25, 0.5, 1, 1.5, 2, 2.5, 3, 4, 6, 8, 10, 12, 16, 24, 48, 72, 96, 120, 144, and 168 hours after dosing. Urine samples for the PK analysis were collected as a single block at: (i) Day 1: before dosing (spot collection), 0 to 8, 8 to 16, and 16 to 24 hours after dosing; and (ii) Day 14: 0 to 8, 8 to 16, and 16 to 24 hours after dosing. Both plasma and urine concentrations of Compound I and its S-cis isomer were measured using validated liquid chromatography-tandem mass spectrometry (LC/MS/MS).
Data Analysis: Safety data were summarized using descriptive statistics by treatment. PK parameters for Compound I and its S-cis isomer were calculated using non-compartmental analysis using WinNonlin (Version 5.0.1 or greater; Pharsight Corporation, Mountain View, Calif.). Dose proportionality and dose independence were evaluated by visual inspection. Intra-subject variability was assessed using an ANOVA model using data from Days 10 and 14.

[1] = S-cis isomer in plasma after Compound I 25 mg QD
[2] = S-cis isomer in plasma after Compound I 50 mg QD
[3] = S-cis isomer in plasma after Compound I 100 mg QD
[4] = S-cis isomer in plasma after Compound I 200 mg QD

SMILES: OC1CCC(Nc2ncc3nc(Nc4c(F)cc(F)cc4F)n(C4CCOC4)c3n2)CC1 (stereo not drawn) [S-cis isomer of Compound I]
- AUC(0-∞) [1]: 180.14 ng·h/mL
- Cmax [1]: 5.43 ng/mL
- Ctrough [1]: 2.33 ng/mL
- RA (ratio of accumulation) [1]: 2.02
- t1/2 [1]: 28.82 h
- Tmax [1]: 2.5 h
- AUC(0-τ) [1]: 78.40 ng·h/mL
- AUC(0-∞) [2]: 365.88 ng·h/mL
- Cmax [2]: 11.61 ng/mL
- Ctrough [2]: 4.93 ng/mL
- RA (ratio of accumulation) [2]: 2.28
- t1/2 [2]: 25.39 h
- Tmax [2]: 3.0 h
- AUC(0-τ) [2]: 177.01 ng·h/mL
- AUC(0-∞) [3]: 541.06 ng·h/mL
- Cmax [3]: 14.87 ng/mL
- Ctrough [3]: 7.14 ng/mL
- RA (ratio of accumulation) [3]: 1.88
- t1/2 [3]: 28.17 h
- Tmax [3]: 2.5 h
- AUC(0-τ) [3]: 237.26 ng·h/mL
- AUC(0-∞) [4]: 804.07 ng·h/mL
- Cmax [4]: 27.69 ng/mL
- Ctrough [4]: 10.90 ng/mL
- RA (ratio of accumulation) [4]: 1.50
- t1/2 [4]: 23.93 h
- Tmax [4]: 2.5 h
- AUC(0-τ) [4]: 404.33 ng·h/mL
- systemic exposure relative to that of Compound I (after Compound I QD dosing): about 2%

Source: patent US8603527B2, “Pharmaceutical formulations of a substituted diaminopurine” (Signal Pharmaceuticals, LLC, priority 2010, dated 2013)
